Laboratory results published in ChEMBL document CHEMBL1156829 (Proc Natl Acad Sci U S A, 2008).

Assays:
Plasmodium falciparum [1] = experiment: NOVARTIS: Inhibition of Plasmodium falciparum 3D7 (drug-susceptible) proliferation in erythrocyte-based infection assay; type: functional, organism-based; conditions: Plasmodium falciparum, 3D7
Plasmodium falciparum [2] = experiment: NOVARTIS: Inhibition of Plasmodium falciparum W2 (drug-resistant) proliferation in erythrocyte-based infection assay; type: functional, organism-based; conditions: Plasmodium falciparum, W2; read-out: EC50
[3] = NOVARTIS: Cytotoxicity against human hepatocellular carcinoma cell line (Huh7); type: toxicity, cell-based, Huh-7; conditions: Huh7 cells (hepatocellular carcinoma cell line)

Row | SMILES | EC50 (Plasmodium falciparum [1]) | EC50 (Plasmodium falciparum [2]) | CC50 [3]
1 | NC1(C(=O)O)CCc2cc(C(=O)O)ccc21 (configuration not stated) | > 1160 nM | 833 nM | > 10000 nM
2 | O=[N+]([O-])c1ccc2nc(Nc3ccc(Cl)c(Cl)c3)c(Nc3ccc(Cl)c(Cl)c3)nc2c1 | 7230 nM | 7040 nM | > 85400 nM
3 | Oc1ccc(-c2nc(-c3ccc4oc5ccc(-c6[nH]c(-c7ccc(O)cc7)nc6-c6ccccc6)cc5c4c3)c(-c3ccccc3)[nH]2)cc1 | 3300 nM | 8280 nM | > 100000 nM
4 | CC(C)c1ccc2c(c1)c1c3c([n+](C)ccn32)CCC1 | 1720 nM | 2630 nM | 31800 nM
5 | CCc1cccc(NC(=O)CCCn2c(=O)c3cccn3c3ccccc32)c1 | > 1560 nM | 826 nM | > 10000 nM
6 | COC(=O)[C@@H]1C[C@@H](NC(=O)c2ccc(OC)cc2OC)CN1C/C(C)=C/c1ccccc1 | 432 nM | 821 nM | > 10000 nM
7 | CCN(c1ccc(F)cc1)S(=O)(=O)c1ccc2[nH]cc(C(=O)NC(C)(C)C)c(=O)c2c1 | > 1600 nM | 830 nM | > 10000 nM
8 | CC(=O)OC1CCC2(C)C(CCC3C2CCC2(C)C3CC(O)C2(O)C(C)=O)C1 (configuration not stated) | > 1250 nM | > 826 nM | > 10000 nM
9 | CCc1ccc(-n2c(C(CC)N(CCC(C)C)C(=O)Nc3ccc(Cl)c(Cl)c3)nc3ccccc3c2=O)cc1 (configuration not stated) | > 1250 nM | > 830 nM | > 10000 nM
10 | Nc1nc(N)c2cc(S(=O)(=O)N3CCSCC3)ccc2n1 | 116 nM | > 1250 nM | 15100 nM
11 | O=C(CSc1cn(CCNC(=O)c2ccc(F)cc2)c2ccccc12)Nc1ccccc1F | > 12500 nM | > 8090 nM | > 98900 nM
12 | Cc1ccc2c(c1)N(CC(=O)NC1CCCCC1C)C(=O)CO2 (configuration not stated) | 2010 nM | > 815 nM | > 10000 nM
13 | Cc1ccc(NC(=O)N2CCN(CCN(Cc3ccc(F)cc3)C(=O)c3ccccc3C)CC2)cc1 | > 1740 nM | 818 nM | > 10000 nM
14 | O=[N+]([O-])c1ccc(-c2cn3nc(C(F)(F)F)sc3n2)cc1 | 1050 nM | 818 nM | > 10000 nM
15 | COc1ccc(/C=C/C(=O)Nc2ccncc2)cc1OC | 593 nM | 828 nM | > 10000 nM
16 | CCCCCC[P+](N(CCC)CCC)(N(CCC)CCC)N(CCC)CCC | 70.4 nM | 95.6 nM | 1160 nM
17 | CCCCCN(C(=O)Nc1ccccc1OC)C(CC)c1nc2ccccc2c(=O)n1-c1ccccc1OC (configuration not stated) | 780 nM | 835 nM | > 10000 nM
18 | CCOc1ccc(NC(=O)c2ccc(I)o2)cc1 | 4850 nM | 5790 nM | 69600 nM
19 | CC1CCN(C(=O)C(C)N(c2ccccc2)S(C)(=O)=O)CC1 (configuration not stated) | 7200 nM | 8320 nM | > 100000 nM
20 | CCOC(=O)C1=C(C)N(CCNc2ncc(C(F)(F)F)cc2Cl)C(=O)CC1 | 7670 nM | 8350 nM | > 100000 nM
21 | COc1cc(NC(C)CCCN(Cc2ccc(OC)c(OC)c2)C(=O)CCC2CCCC2)c2ncccc2c1 (configuration not stated) | 687 nM | 333 nM | 3990 nM
22 | CCCCN(CCCC)[P+](N(CCCC)CCCC)(N(CCCC)CCCC)N(CCCC)CCCC | 224 nM | 65.4 nM | 784 nM
23 | CCOc1ccccc1-n1c(C(C)N(CCc2ccccc2)C(=O)c2ccc(Br)cc2)nc2ccccc2c1=O (configuration not stated) | > 1250 nM | 834 nM | > 10000 nM
24 | CCCCc1ccc(C(=O)N(CC(=O)Nc2cc(C(C)(C)C)nn2-c2ccc(Cl)cc2)C(C)C)cc1 | > 1380 nM | > 832 nM | > 10000 nM
25 | CCc1ccc2c(c1)c1nnc(SCC(=O)NCCOC)nc1n2C | > 1250 nM | > 838 nM | > 10000 nM
26 | CCc1nnc2n1N(C(C)=O)C(c1ccc(Cl)c(Cl)c1)=C(C(C)=O)S2 | > 1250 nM | > 835 nM | > 10000 nM
27 | CC1CN(C)C(C)CC1=NOC(=O)c1ccc(Cl)c(Cl)c1 (configuration not stated) | > 1250 nM | > 848 nM | > 10000 nM

Row | SMILES | EC50 (Plasmodium falciparum [1]) | EC50 (Plasmodium falciparum [2]) | CC50 [3]
28 | CCCCCCN(C(=O)COCc1ccccc1)C(CC)c1nc2ccccc2c(=O)n1-c1ccc(F)c(Cl)c1 (configuration not stated) | 607 nM | 821 nM | > 10000 nM
29 | Cc1cnc(Sc2ccccn2)c([N+](=O)[O-])c1 | > 12500 nM | 6130 nM | 72900 nM
30 | Nc1c(C(=O)c2ccc(Br)cc2)sc2nc(-c3cccnc3)ccc12 | 1300 nM | > 1090 nM | > 13000 nM
31 | COc1ccccc1Cc1nc2ccccc2nc1SCC(=O)Nc1cccc(C(F)(F)F)c1 | > 5520 nM | > 8340 nM | > 100000 nM
32 | CN(C)CCNc1ccc2ncc(-c3ccsc3)n2n1 | > 1250 nM | > 846 nM | > 10000 nM
33 | COc1cc(NC(C)CCCN(Cc2ccccc2OC)C(=O)Nc2cccc(F)c2)c2ncccc2c1 (configuration not stated) | > 1660 nM | 840 nM | > 10000 nM
34 | CC1(C)C2C[C@@H](COC(=O)NC(=O)c3ccccc3)[C@]3(C)[C@H](C21)C3(Cl)Cl (some centres not stated) | 1140 nM | 951 nM | > 11200 nM
35 | Cn1nc(C(=O)N2CCCC2)c2c1CCC(NCc1cnc3ccccc3c1)C2 (configuration not stated) | > 1250 nM | > 843 nM | > 10000 nM
36 | C=CCNCc1cc(-c2cc(OC)ccc2OC)ccc1O | 1100 nM | 840 nM | > 10000 nM
37 | Cc1ccc(Nc2nc(N)c3ccccc3n2)cc1Cl | 527 nM | 755 nM | 8920 nM
38 | CCOc1ccc(-c2noc(-c3ccncc3)n2)cc1OCC | > 1250 nM | > 847 nM | > 10000 nM
39 | COc1ccc2nc3cc(Cl)ccc3c(Nc3ccc(O)cc3)c2c1 | 809 nM | 845 nM | > 10000 nM
40 | COc1ccccc1NC(=O)CSc1nc2cccnc2n1-c1ccccc1OC | 833 nM | 848 nM | > 10000 nM
41 | CC1=NN(c2ccc(C(=O)O)cc2)C(=O)/C1=C\c1ccc([N+](=O)[O-])o1 | > 1250 nM | > 839 nM | > 10000 nM
42 | O=C(NCCc1ccccc1)c1cnc(NCCCn2ccnc2)nc1Nc1ccccc1 | 552 nM | 843 nM | > 10000 nM
43 | CCCCCN(C(=O)COCc1ccccc1)C(CC)c1nc2ccccc2c(=O)n1-c1cccc(Cl)c1 (configuration not stated) | 411 nM | 847 nM | > 10000 nM
44 | CC(C)c1ccc(-c2cncc(N[C@@H](C)c3ccccc3)n2)cc1 | > 558 nM | 846 nM | > 10000 nM
45 | O=[N+]([O-])c1cccc(CNc2ccc(F)c(Cl)c2)c1 | > 12500 nM | 8050 nM | > 95600 nM
46 | CCOC(=O)c1ccc(NC(=O)CSc2nc(NCc3ccccc3)c3ccccc3n2)cc1 | > 1140 nM | > 836 nM | > 10000 nM
47 | Cc1ccc(C(=O)c2c(C)oc3ccc(O)cc23)cc1 | > 1250 nM | > 839 nM | > 10000 nM
48 | CCCCCCOC(=O)C1=C(C)NC(=O)NC1c1ccccc1F (configuration not stated) | > 6760 nM | > 8310 nM | > 100000 nM
49 | Cc1ccc(C)c(Nc2nc(NCC3CCCO3)c3ccccc3n2)c1 (configuration not stated) | 1530 nM | 1540 nM | 18600 nM
50 | CC(=NNc1nc2ccccc2s1)c1ccc([N+](=O)[O-])cc1 | > 965 nM | > 848 nM | > 10000 nM
51 | O=C(NNS(=O)(=O)c1ccccc1[N+](=O)[O-])c1ccccc1 | > 1250 nM | > 833 nM | > 10000 nM
52 | Cc1nc(N)sc1C(=O)NN=Cc1cccc(Br)c1 | > 1250 nM | 819 nM | > 10000 nM
53 | CC(C)CCNC(=O)C1CSC(c2ccc(F)cc2)N1C(=O)c1ccc(Cl)cc1Cl (configuration not stated) | > 12500 nM | 8180 nM | > 100000 nM
54 | CC1CC2=C(CC1CNCCCN(C)C)C(C)(C)CCC2 (configuration not stated) | 250 nM | 844 nM | > 10000 nM
